Data on 56 compounds can be found in patent US9266834B2, “1, 4-disubstituted 3-cyano-pyridone derivatives and their use as positive allosteric modulators of MGLUR2-receptors” (JANSSEN PHARMACEUTICALS, INC., priority 2006, dated 2016).

For one series, the target named is T1, human mGluR2 receptor (Homo sapiens, UniProt Q14416).
T1 construct: expressed in transfected cells; host or cells: CHO cells (membrane preparation)
The series is described as follows: [35S]GTPγS binding assay (GTPγS-PAM): positive allosteric modulation in presence of glutamate at EC25, membranes from transfected CHO cells. Type of series: biochemical. As to conditions: in presence of mGluR2 agonist glutamate at predetermined EC25 concentration, averages of duplicate values of 11-concentration response curves; for EC50: read-out: GTPgS - hR2 PAM pEC50 (converted). Summed up: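 Membranes came from butyrate-stimulated CHO cells expressing human mGluR2, used at 15 μg/well in HEPES pH 7.4 with 100 mM NaCl, 3 mM MgCl2, 50 μM GDP and saponin. Compound (0.3 nM-50 μM, 11 concentrations) plus glutamate at EC25 was preincubated 30 min at 30° C., then 0.1 nM [35S]GTPγS was added for 30 min. Filter-bound radioactivity was counted, nonspecific binding was taken with 10 μM GTP, and curves were fitted by four-parameter logistic.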
(In general: Binding of GTPγS marks nucleotide exchange on a G protein.)

T1 sequence (Q14416 19-872): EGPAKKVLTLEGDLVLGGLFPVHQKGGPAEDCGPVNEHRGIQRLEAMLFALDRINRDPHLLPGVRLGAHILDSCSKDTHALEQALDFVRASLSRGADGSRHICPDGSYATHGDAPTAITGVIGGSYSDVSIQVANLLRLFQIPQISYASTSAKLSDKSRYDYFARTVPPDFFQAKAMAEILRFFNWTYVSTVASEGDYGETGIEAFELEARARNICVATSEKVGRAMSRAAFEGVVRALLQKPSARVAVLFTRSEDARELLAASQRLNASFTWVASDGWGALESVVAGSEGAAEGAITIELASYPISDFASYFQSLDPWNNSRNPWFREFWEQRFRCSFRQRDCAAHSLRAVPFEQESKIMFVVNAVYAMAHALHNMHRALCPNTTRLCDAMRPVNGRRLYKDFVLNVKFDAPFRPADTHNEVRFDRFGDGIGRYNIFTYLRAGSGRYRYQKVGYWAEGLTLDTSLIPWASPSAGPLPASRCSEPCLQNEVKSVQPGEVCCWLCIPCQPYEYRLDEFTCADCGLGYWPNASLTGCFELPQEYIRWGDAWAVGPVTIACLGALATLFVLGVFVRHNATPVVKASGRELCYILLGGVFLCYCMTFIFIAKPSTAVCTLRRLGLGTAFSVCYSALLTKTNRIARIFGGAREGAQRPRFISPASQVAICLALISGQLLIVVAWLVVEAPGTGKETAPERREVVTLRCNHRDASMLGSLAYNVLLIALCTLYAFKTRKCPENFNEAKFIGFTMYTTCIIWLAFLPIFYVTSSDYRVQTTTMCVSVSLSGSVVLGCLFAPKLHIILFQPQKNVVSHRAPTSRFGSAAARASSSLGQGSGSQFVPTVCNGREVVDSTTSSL

As usually defined, the melting point is the temperature, or range, at which the solid turns liquid. For `N#Cc1c(-c2ccc(OCCCN3CCOCC3)cc2)ccn(Cc2ccc(OC(F)(F)F)cc2)c1=O` [1-038], the melting point is 140 °C. For the same compound, the EC50 at human mGluR2 receptor was 794 nM.

`COc1ccc(-c2ccn(Cc3ccc(OC(F)(F)F)cc3)c(=O)c2C#N)cc1` [1-039] had a melting point of 169 °C. Also, the EC50 on human mGluR2 receptor is 158 nM.

For `N#Cc1c(-c2ccc(CCCO)cc2)ccn(Cc2ccc(OC(F)(F)F)cc2)c1=O` [1-040], the melting point is 180 °C. For the same compound, on human mGluR2 receptor, the EC50 was 200 nM.

For the compound `N#Cc1c(-c2ccc(Oc3ccccc3)cc2)ccn(Cc2ccc(OC(F)(F)F)cc2)c1=O` [1-041], the melting point was 155 °C. For the same compound, the EC50 at human mGluR2 receptor is 251 nM.

Compound `N#Cc1c(-c2ccccc2)ccn(Cc2ccc(-c3ccccc3)cc2)c1=O` [1-042] came in with a melting point of 185 °C. Further, at human mGluR2 receptor, the EC50 was 158 nM.

The compound `N#Cc1c(-c2cccs2)ccn(Cc2ccc(C(F)(F)F)nc2)c1=O` [1-046] showed a melting point of 185 °C. Moreover, the EC50 at human mGluR2 receptor was 1260 nM.

`COc1ccc(-c2ccn(CCOc3ccccc3)c(=O)c2C#N)cc1` [1-048]: the melting point turned out to be 188 °C. In addition, on human mGluR2 receptor, the EC50 is 1000 nM.

As to `N#Cc1c(-c2cccs2)ccn(CCCc2ccccc2)c1=O` [1-052], the melting point is 118 °C. Moreover, on human mGluR2 receptor, the EC50 is 2000 nM.

`CCCCn1ccc(-c2ccc(OC(F)(F)F)cc2)c(C#N)c1=O` [1-055] came in with a melting point of 123 °C. For the same compound, the EC50 on human mGluR2 receptor is 1260 nM.

`CCCCn1ccc(-c2ccc(N3CCCCC3)cc2)c(C#N)c1=O` [1-058] yielded a melting point of 122 °C. Moreover, the EC50 at human mGluR2 receptor was 316 nM.

`CCCCn1ccc(-c2cccs2)c(C#N)c1=O` [1-059]: the melting point came out at 103 °C. For the same compound, at human mGluR2 receptor, the EC50 is 5010 nM.

The compound `CCCCn1ccc(-c2ccc(OCc3cccc(C)n3)cc2)c(C#N)c1=O` [1-063] registered a melting point of 102 °C. Further, the EC50 on human mGluR2 receptor is 1000 nM.

On to `CC(C)Cn1ccc(-c2cccs2)c(C#N)c1=O` [1-077], for which the melting point is 108 °C. Further, the EC50 on human mGluR2 receptor is 3980 nM.

In turn, `CC(C)Cn1ccc(-c2ccc(Oc3ccncc3)cc2)c(C#N)c1=O` [1-078] displayed a melting point of 170 °C. In addition, the EC50 at human mGluR2 receptor was 3980 nM.

The compound `CCCC(C)n1ccc(-c2cccs2)c(C#N)c1=O` (stereo not shown) [1-079] came in with a melting point of 103 °C. Also, the EC50 on human mGluR2 receptor is 5010 nM.

Compound `CC(C)CCn1ccc(-c2cccs2)c(C#N)c1=O` [1-082] showed a melting point of 123 °C. In addition, on human mGluR2 receptor, the EC50 was 2000 nM.

Take `Cc1ccc(-c2ccn(CCC(C)C)c(=O)c2C#N)cc1` [1-085]: the melting point worked out at 102 °C. The EC50 at human mGluR2 receptor was 794 nM.

`CC(C)CCn1ccc(-c2ccc(C(C)(C)C)cc2)c(C#N)c1=O` [1-086] displayed a melting point of 168 °C. Further, the EC50 on human mGluR2 receptor is 63.1 nM.

Take `CC(C)CCn1ccc(-c2ccccc2F)c(C#N)c1=O` [1-087]: the melting point is 125 °C. Further, the EC50 on human mGluR2 receptor was 3980 nM.

Regarding `CC(C)CCn1ccc(-c2cccc(F)c2)c(C#N)c1=O` [1-088], the melting point was 161 °C. Moreover, the EC50 at human mGluR2 receptor was 2510 nM.

Compound `CC(C)CCn1ccc(-c2cccc(Cl)c2)c(C#N)c1=O` [1-090] yielded a melting point of 123 °C. Further, the EC50 at human mGluR2 receptor was 794 nM.

Regarding `CC(C)CCn1ccc(-c2ccc(Cl)cc2)c(C#N)c1=O` [1-091], the melting point is 137 °C. The EC50 at human mGluR2 receptor was 1580 nM.

Turning to `CC(C)CCn1ccc(-c2ccc(-c3ccccc3)cc2)c(C#N)c1=O` [1-093], the melting point is 172 °C. In addition, at human mGluR2 receptor, the EC50 was 25.1 nM.

Take `CC(C)CCn1ccc(-c2cccc(-c3ccccc3)c2)c(C#N)c1=O` [1-094]: the melting point was 131 °C. In addition, on human mGluR2 receptor, the EC50 is 501 nM.

`CC(C)CCn1ccc(-c2ccc(CCCO)cc2)c(C#N)c1=O` [1-095, 3-cyano-4-(4-hydroxypropylphenyl)-1-(3-methylbutyl)pyridine-2(1H)-one]: the melting point was found to be 85 °C. Besides, the EC50 at human mGluR2 receptor is 631 nM.

In the case of `CC(C)CCn1ccc(-c2cccc(O)c2)c(C#N)c1=O` [1-096], the melting point was determined as 201 °C. Also, on human mGluR2 receptor, the EC50 was 1580 nM.

In the case of `CC(C)CCn1ccc(-c2ccc(O)cc2)c(C#N)c1=O` [1-097], the melting point amounted to 210 °C. On human mGluR2 receptor, the EC50 was 1580 nM.

With `COc1cccc(-c2ccn(CCC(C)C)c(=O)c2C#N)c1` [1-101], the melting point is 96 °C. Moreover, the “GTPgS - hR2 PAM pEC50” value on human mGluR2 receptor stood at 5.5.

Turning to `COCc1ccc(-c2ccn(CCC(C)C)c(=O)c2C#N)cc1` [1-103, 3-cyano-4-(4-methoxymethylphenyl)-1-(3-methylbutyl)pyridine-2(1H)-one], the melting point was found to be 91 °C. Further, the EC50 at human mGluR2 receptor is 2000 nM.

The compound `CCCOc1ccc(-c2ccn(CCC(C)C)c(=O)c2C#N)cc1` [1-105] returned a melting point of 107 °C. Moreover, at human mGluR2 receptor, the EC50 was 398 nM.

`COCc1cccc(-c2ccn(CCC(C)C)c(=O)c2C#N)c1` [1-107] displayed a melting point of 67 °C. Further, the EC50 at human mGluR2 receptor was 3160 nM.

For the compound `COc1ccc(-c2ccn(CCC(C)C)c(=O)c2C#N)cc1OC` [1-110, 4-(3,4-dimethoxyphenyl)-3-cyano-1-(3-methylbutyl)pyridine-2(1H)-one], the melting point worked out at 52 °C. Further, the EC50 on human mGluR2 receptor was 2510 nM.

For the compound `CC(C)CCn1ccc(-c2ccc(OC(C)C)cc2)c(C#N)c1=O` [1-111], the melting point stood at 129 °C. Also, the EC50 on human mGluR2 receptor is 316 nM.

With `COc1ccc(-c2ccn(CCC(C)C)c(=O)c2C#N)cc1Cl` [1-112], the melting point was found to be 149 °C. In addition, the EC50 at human mGluR2 receptor was 316 nM.

On to `COc1ccc(-c2ccn(CCC(C)C)c(=O)c2C#N)c(F)c1` [1-113, 3-cyano-4-(2-fluoro-4-methoxyphenyl)-1-(3-methylbutyl)pyridine-2(1H)-one], for which the melting point was 65 °C. For the same compound, the EC50 on human mGluR2 receptor is 631 nM.

As for `COc1ccc(-c2ccn(CCC(C)C)c(=O)c2C#N)cc1F` [1-114, 3-cyano-4-(3-fluoro-4-methoxyphenyl)-1-(3-methylbutyl)pyridine-2(1)-one], the melting point came out at 133 °C. Besides, the EC50 on human mGluR2 receptor was 1000 nM.

As to `CCC(C)Oc1ccc(-c2ccn(CCC(C)C)c(=O)c2C#N)cc1F` (stereo not shown) [1-115], the melting point is 154 °C. Besides, the EC50 at human mGluR2 receptor is 100 nM.

In turn, `CC(C)CCn1ccc(-c2ccc(OC(C)C)c(Cl)c2)c(C#N)c1=O` [1-117] showed a melting point of 166 °C. On human mGluR2 receptor, the EC50 is 63.1 nM.

Regarding `CC(C)CCn1ccc(-c2ccc(OC(F)(F)F)cc2)c(C#N)c1=O` [1-120], the melting point is 122 °C. Moreover, the EC50 at human mGluR2 receptor is 501 nM.

`CC(C)CCn1ccc(-c2ccc(OCC(F)F)c(Cl)c2)c(C#N)c1=O` [1-122]: the melting point was found to be 131 °C. Further, on human mGluR2 receptor, the EC50 is 1000 nM.

Compound `CC(C)CCn1ccc(-c2ccc(OCC(F)(F)F)c(Cl)c2)c(C#N)c1=O` [1-123] displayed a melting point of 189 °C. The EC50 at human mGluR2 receptor is 158 nM.

The compound `CC(=O)NCCOc1ccc(-c2ccn(CCC(C)C)c(=O)c2C#N)cc1` [1-128] came in with a melting point of 107 °C. Also, on human mGluR2 receptor, the EC50 is 3160 nM.

`CC(C)CCn1ccc(-c2ccc(OCC#N)cc2)c(C#N)c1=O` [1-131] registered a melting point of 132 °C. Moreover, at human mGluR2 receptor, the EC50 was 2510 nM.

With `CC(C)CCn1ccc(-c2ccc(OCC3CC3)c(Cl)c2)c(C#N)c1=O` [1-134], the melting point was determined as 294 °C. Besides, the EC50 at human mGluR2 receptor was 79.4 nM.

With `COc1cccc(Oc2ccc(-c3ccn(CCC(C)C)c(=O)c3C#N)cc2)c1` [1-143], the melting point was found to be 118 °C. For the same compound, the EC50 on human mGluR2 receptor was 79.4 nM.

In turn, `COc1cccc(COc2ccc(-c3ccn(CCC(C)C)c(=O)c3C#N)cc2)c1` [1-144] gave a melting point of 100 °C. Besides, the EC50 at human mGluR2 receptor is 63.1 nM.

`COc1ccc(COc2ccc(-c3ccn(CCC(C)C)c(=O)c3C#N)cc2)cc1` [1-145] registered a melting point of 212 °C. At human mGluR2 receptor, the EC50 was 39.8 nM.

With `CC(C)CCn1ccc(-c2ccc(OCc3cccc(F)c3)cc2)c(C#N)c1=O` [1-146], the melting point was found to be 139 °C. For the same compound, the EC50 on human mGluR2 receptor is 63.1 nM.

In the case of `CC(C)CCn1ccc(-c2ccc(OCc3ccc(F)cc3)cc2)c(C#N)c1=O` [1-147], the melting point turned out to be 146 °C. The EC50 at human mGluR2 receptor was 79.4 nM.

For the compound `CC(C)CCn1ccc(-c2ccc(OCc3ccccc3)c(F)c2)c(C#N)c1=O` [1-148], the melting point was 173 °C. For the same compound, the EC50 on human mGluR2 receptor is 50.1 nM.

Turning to `CC(C)CCn1ccc(-c2ccc(OCc3cccc(Cl)c3)cc2)c(C#N)c1=O` [1-149], the melting point was 120 °C. Also, the EC50 at human mGluR2 receptor was 50.1 nM.

`CC(C)CCn1ccc(-c2ccc(OCc3ccccc3)c(Cl)c2)c(C#N)c1=O` [1-150]: the melting point turned out to be 177 °C. Moreover, the EC50 at human mGluR2 receptor is 79.4 nM.

Compound `CC(C)CCn1ccc(-c2ccc(OCc3cccc(C#N)c3)cc2)c(C#N)c1=O` [1-151] returned a melting point of 154 °C. Further, at human mGluR2 receptor, the EC50 was 39.8 nM.

On to `CC(C)CCn1ccc(-c2ccc(Oc3ccc(C#N)cc3)cc2)c(C#N)c1=O` [1-152], for which the melting point stood at 193 °C. Moreover, the EC50 at human mGluR2 receptor is 100 nM.

As to `CC(C)CCn1ccc(-c2ccc(OCc3ccc(C#N)cc3)cc2)c(C#N)c1=O` [1-153], the melting point was 171 °C. Moreover, the EC50 at human mGluR2 receptor is 50.1 nM.

Turning to `CC(C)CCn1ccc(-c2ccc(Oc3cccnc3)cc2)c(C#N)c1=O` [1-155], the melting point turned out to be 132 °C. Besides, the EC50 on human mGluR2 receptor is 501 nM.
